Measurements taken from patent publication US20210239681A1, “COMPOSITIONS AND METHODS FOR […] OF […]-BASED IMMUNOTHERAPEUTICS” (ADVAXIS, INC., priority 2018, published 2021).

Columns and labels:
Type in all cases: cell-based, human
THP-1 cells = experiment: Cytokine production by THP-1 in the absence of T cells; settings: Without gentamicin; Listeria MOI of 10; optical density
HPV E7 Specific T cells = experiment: THP-1/T cell co-culture: MOI, infection time and cell ratio titration; design: IFNγ / IL-1β / IL-6 / TNF-α: unit not given here; settings: for IFNγ production / IFNγ / IL-1β / IL-6 / TNF-α: THP-1 + peptide; for IFNγ production: THP-1 Cells 40000
Experimental: A separate experiment was performed with a range of MOI and 5 hours infection time. In this experiment only IFNγ was measured since this cytokine is only made by the T cells, not THP-1 cells. While there was still recognition of the ADXS11-001 infected THP-1 cells it was not as great as that observed in overnight cultures when compared to the peptide incubated THP-1.
The MOI used for infection was varied over a range of bacterial concentration. In Table 12 the effect of the different MOI on cytokine secretion by THP-1 is shown. […] Secretion of IFNγ by the T cells was related to the MOI with higher MOI stimulating higher IFNγ production, though there was significant IFNγ at all MOI.
Cell number and ratio of T cells to THP-1 cells was also analyzed. The above experiments all used 20,000 T cells and 20,000 THP-1 cells per well (1:1 ratio). We initially investigated the effect of cell number using THP-1 incubated with peptide. The number of both T cells and THP-1 were varied. THP-1 cells ranging from 40,000 cells to 5000 cells per well were incubated with T cells ranging from 20,000 to 5000 cells per well. Effect of varying THP-1 to T cell ratio on IFNγ production was investigated at both higher (1 μg/ml) and lower (0.1 μg/ml) peptide concentrations.
We investigated if this effect is reproducible in infected THP cells. Varying concentration of infected THP-1 cells ranging from 40000 to 10000 cells per well were incubated with T cells ranging from 40000 to 10000 cells per well to identify the optimum cell ratio for the assay. The effect of cell ratio on IFNγ production is similar to the effect observed with peptide incubation.
Titration studies with different multiplicity of infection (MOI). THP cells were infected for 2 hours with 3 different dilutions (MOI) of Listeria. Infected or uninfected THP cells were then cultured overnight for 24 hours before co-culturing the T cells. Cells were co-cultured overnight before cytokine analysis.

[1] = test system: E7 (11-20) specific T cells; experiment: Initial THP-1 / T cell co-culture cytokine production (T cell culture with 6% E7 (11-20) specific T cells); design: IFNγ / TNF-α / IL-10 / IL-12p70 / IL-13 / IL-1β / IL-2 / IL-4 / IL-6 / IL-8: unit not given here
Experimental: Analysis Kits and Reagents: Analysis of cytokine concentrations in culture medium used the U-plex assay kits from Meso Scale Discovery. Expression of T cell receptors specific for E7 peptide bound to HLA-A*02:01 was detected using HLA-A*02:01/peptide tetramers from MBL International (Woburn, Mass.).
Infection of THP-1: The THP-1 cell line was infected with either ADXS11-001 or XFL7 by incubating 10^6 cells with dilutions of bacteria in a 1 mL volume of RPMI 1640 10% FBS. Incubation with bacteria was at 37° C., 5% CO2 for the indicated times, then extracellular bacteria were eliminated by washing and incubation in the presence of 50 μg/mL gentamicin for 1 hour at 37° C. After incubation with gentamicin the cells were washed again and resuspended to the desired cell concentration.
T cell cytokine expression analysis. An initial experiment using THP-1 as antigen presenting cells was performed using a T cell culture containing 6% E7 (11-20) specific T cells based upon staining with HLA-A*02:01/peptide tetramer. THP-1 cells were infected as described using two different concentrations of bacteria and then co-cultured with the T cells. Controls included uninfected THP-1 cells and THP-1 cells incubated with (exposed to) either the 9mer or 10mer peptide for one hour. After an overnight co-culture, medium was collected for analysis of cytokines.

PBMC = experiment: Cytokine release by donor PBMC cultured with peptide; design: unit not given beside the values; settings: release on antigen
Experimental: Peripheral blood mononuclear cells (PBMCs) samples were collected from three human HLA-A*02:01 donors: 358, 213, and 224. The peripheral blood mononuclear cells (PBMCs) were cultured with one of two E7 peptides: […] (9mer or 1T; SEQ ID NO: 100) or […] (10mer or 2T; SEQ ID NO: 101). After 10 days culture, the PBMCs were tested for E7 peptide binding staining and cytokine release.

[2] = T cells and THP-1 incubated with peptide one hour, overnight co-culture

## YMLDLQPETT [10mer]
THP-1 cells
  IFNγ production, THP-1 alone: 0.062
HPV E7 Specific T cells; T Cells 10000
  IFNγ production: 8078
HPV E7 Specific T cells; T Cells 20000
  IFNγ production: 17968
HPV E7 Specific T cells; T Cells 40000
  IFNγ production: 34161
HPV E7 Specific T cells; THP/T cell co-culture
  IFNγ: 33835
  IL-1β: 3
  IL-6: 23
  TNF-α: 697
HPV E7 Specific T cells; co-culture with T cells
  IFNγ: 65099
  IL-1β: 6
  IL-6: 1243
  TNF-α: 2309
HPV E7 Specific T cells; THP-1 incubated with peptide, mean of triplicate
  IFNγ Mean: 41305 pg/mL
[1]; [2]
  IFNγ: 17140.7
  IL-1β: 7.0
  IL-2: 315.2
  IL-4: 11.9
  IL-6: 19.6
  IL-8: 6099.7
  IL-10: 34.0
  IL-12p70: 7.4
  IL-13: 508.4
  TNF-α: 1192.3
[1]; relative to T cells co-cultured with control or uninfected THP-1 cells
  T cell cytokine response to peptide presented by THP-1: elevated levels of IFNγ, IL-13, IL-2, IL-8 and TNFα
PBMC; donor 213 PBMC cultured with 1T peptide
  IFNγ Mean: 86.6
PBMC; donor 358 PBMC stimulated with 1T
  IFNγ Mean: 183.9
PBMC; donor 358 PBMC stimulated with 2T
  IFNγ Mean: 359.8
